According to PubChem BioAssay (NCI):
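96-well plates; 48 h exposure; 5 concentrations. Endpoints by linear interpolation between flanking doses. Not reached: highest tested concentration assigned. At the TGI there is no net growth.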

Assays:
Assay in all cases: NCI anticancer screen, dose series, 48 h
HOP-92 NSCLC = tested on: HOP-92 NSCLC
ACHN renal = tested on: ACHN renal
NCI-H522 lung = tested on: NCI-H522 lung
T-47D breast = tested on: T-47D breast
KM12 colon = tested on: KM12 colon
A549 NSCLC = tested on: A549 NSCLC
OVCAR-5 ovarian = tested on: OVCAR-5 ovarian
HCT-15 colon = tested on: HCT-15 colon
UACC-257 melanoma = tested on: UACC-257 melanoma
CAKI-1 renal = tested on: CAKI-1 renal
TK-10 renal = tested on: TK-10 renal
UACC-62 melanoma = tested on: UACC-62 melanoma
SK-MEL-2 melanoma = tested on: SK-MEL-2 melanoma
PC-3 prostate = tested on: PC-3 prostate
HOP-62 NSCLC = tested on: HOP-62 NSCLC
MDA-MB-231 breast = tested on: MDA-MB-231 breast
COLO 205 colon = tested on: COLO 205 colon
M14 melanoma = tested on: M14 melanoma
MDA-MB-435 = tested on: MDA-MB-435
K-562 leukemia = tested on: K-562 leukemia
HT29 colon = tested on: HT29 colon
SNB-19 CNS = tested on: SNB-19 CNS
NCI-H226 lung = tested on: NCI-H226 lung
IGROV1 ovarian = tested on: IGROV1 ovarian
HCC-2998 colon = tested on: HCC-2998 colon
OVCAR-8 ovarian = tested on: OVCAR-8 ovarian
SNB-75 CNS = tested on: SNB-75 CNS
HL-60(TB) leukemia = tested on: HL-60(TB) leukemia
SF-268 CNS = tested on: SF-268 CNS
UO-31 renal = tested on: UO-31 renal
HS 578T breast = tested on: HS 578T breast
SW-620 colon = tested on: SW-620 colon
CCRF-CEM leukemia = tested on: CCRF-CEM leukemia
MCF7 breast = tested on: MCF7 breast
MOLT-4 leukemia = tested on: MOLT-4 leukemia
SN12C renal = tested on: SN12C renal
SK-MEL-5 melanoma = tested on: SK-MEL-5 melanoma
OVCAR-4 ovarian = tested on: OVCAR-4 ovarian
HCT-116 colon = tested on: HCT-116 colon
786-0 renal = tested on: 786-0 renal
A498 renal = tested on: A498 renal
SF-295 CNS = tested on: SF-295 CNS
U251 CNS = tested on: U251 CNS
LOX IMVI melanoma = tested on: LOX IMVI melanoma
NCI-H460 lung = tested on: NCI-H460 lung
BT-549 breast = tested on: BT-549 breast
NCI-H23 lung = tested on: NCI-H23 lung
SF-539 CNS = tested on: SF-539 CNS
SK-MEL-28 melanoma = tested on: SK-MEL-28 melanoma
DU-145 prostate = tested on: DU-145 prostate
RPMI-8226 leukemia = tested on: RPMI-8226 leukemia
EKVX NSCLC = tested on: EKVX NSCLC
OVCAR-3 ovarian = tested on: OVCAR-3 ovarian
MALME-3M melanoma = tested on: MALME-3M melanoma
SK-OV-3 ovarian = tested on: SK-OV-3 ovarian
SR leukemia = tested on: SR leukemia
RXF 393 renal = tested on: RXF 393 renal
NCI/ADR-RES ovarian = tested on: NCI/ADR-RES ovarian

## CN(C)CCNCCCNc1c2ccccc2nc2cccc([N+](=O)[O-])c12
HOP-92 NSCLC
  TGI: 0.0346 µM
ACHN renal
  TGI: 0.0312 µM
NCI-H522 lung
  TGI: < 0.0133 µM
T-47D breast
  TGI: 0.0899 µM
KM12 colon
  TGI: 0.111 µM
A549 NSCLC
  TGI: 0.0999 µM
OVCAR-5 ovarian
  TGI: 0.0543 µM
HCT-15 colon
  TGI: 0.569 µM
UACC-257 melanoma
  TGI: 0.525 µM
CAKI-1 renal
  TGI: 0.331 µM
TK-10 renal
  TGI: 0.176 µM
UACC-62 melanoma
  TGI: 0.236 µM
SK-MEL-2 melanoma
  TGI: 0.0523 µM
PC-3 prostate
  TGI: 0.0609 µM
HOP-62 NSCLC
  TGI: 0.154 µM
MDA-MB-231 breast
  TGI: 0.0832 µM
COLO 205 colon
  TGI: 0.0245 µM
M14 melanoma
  TGI: 0.0654 µM
MDA-MB-435
  TGI: 0.0313 µM
K-562 leukemia
  TGI: < 0.0184 µM
HT29 colon
  TGI: < 0.0277 µM
SNB-19 CNS
  TGI: 0.177 µM
NCI-H226 lung
  TGI: 0.102 µM
IGROV1 ovarian
  TGI: 0.173 µM
HCC-2998 colon
  TGI: < 0.0184 µM
OVCAR-8 ovarian
  TGI: 0.0532 µM
SNB-75 CNS
  TGI: 0.0573 µM
HL-60(TB) leukemia
  TGI: 0.0247 µM
SF-268 CNS
  TGI: 0.105 µM
UO-31 renal
  TGI: 0.26 µM
HS 578T breast
  TGI: 0.384 µM
SW-620 colon
  TGI: 1.34 µM
CCRF-CEM leukemia
  TGI: < 0.0207 µM
MCF7 breast
  TGI: < 0.0268 µM
MOLT-4 leukemia
  TGI: < 0.0192 µM
SN12C renal
  TGI: 0.279 µM
SK-MEL-5 melanoma
  TGI: 0.0507 µM
OVCAR-4 ovarian
  TGI: 0.0208 µM
HCT-116 colon
  TGI: 0.0594 µM
786-0 renal
  TGI: 0.106 µM
A498 renal
  TGI: 0.0588 µM
SF-295 CNS
  TGI: 0.0741 µM
U251 CNS
  TGI: 0.0801 µM
LOX IMVI melanoma
  TGI: < 0.0253 µM
NCI-H460 lung
  TGI: 0.108 µM
BT-549 breast
  TGI: 0.624 µM
NCI-H23 lung
  TGI: < 0.0186 µM
SF-539 CNS
  TGI: 0.263 µM
SK-MEL-28 melanoma
  TGI: 0.442 µM
DU-145 prostate
  TGI: 0.0525 µM
RPMI-8226 leukemia
  TGI: < 0.0226 µM
EKVX NSCLC
  TGI: 0.0617 µM
OVCAR-3 ovarian
  TGI: 0.0466 µM
MALME-3M melanoma
  TGI: 0.104 µM
SK-OV-3 ovarian
  TGI: 0.26 µM

## COc1ccc(C(=O)/C=C/SC(=NC#N)SC)cc1
HOP-92 NSCLC
  TGI: > 100 µM
ACHN renal
  TGI: 46.7 µM
NCI-H522 lung
  TGI: 37.1 µM
T-47D breast
  TGI: 47.3 µM
KM12 colon
  TGI: 63.9 µM
A549 NSCLC
  TGI: > 100 µM
OVCAR-5 ovarian
  TGI: 47.1 µM
HCT-15 colon
  TGI: 28.8 µM
UACC-257 melanoma
  TGI: 40.5 µM
CAKI-1 renal
  TGI: 54.8 µM
TK-10 renal
  TGI: 42.2 µM
UACC-62 melanoma
  TGI: 43.8 µM
SK-MEL-2 melanoma
  TGI: 43.8 µM
PC-3 prostate
  TGI: > 100 µM
HOP-62 NSCLC
  TGI: 44.1 µM
MDA-MB-231 breast
  TGI: 33.2 µM
COLO 205 colon
  TGI: 38.8 µM
M14 melanoma
  TGI: 35.1 µM
MDA-MB-435
  TGI: 49.2 µM
K-562 leukemia
  TGI: > 100 µM
HT29 colon
  TGI: 49.5 µM
SNB-19 CNS
  TGI: 35.2 µM
NCI-H226 lung
  TGI: 43.5 µM
IGROV1 ovarian
  TGI: 57.3 µM
OVCAR-8 ovarian
  TGI: 46.8 µM
SR leukemia
  TGI: 19.6 µM
SNB-75 CNS
  TGI: 89.2 µM
HL-60(TB) leukemia
  TGI: > 100 µM
RXF 393 renal
  TGI: 35.1 µM
SF-268 CNS
  TGI: 70.3 µM
UO-31 renal
  TGI: 37.4 µM
HS 578T breast
  TGI: 68.3 µM
SW-620 colon
  TGI: 48.3 µM
MCF7 breast
  TGI: 38.2 µM
NCI/ADR-RES ovarian
  TGI: 42.3 µM
MOLT-4 leukemia
  TGI: 58 µM
SN12C renal
  TGI: 75.2 µM
SK-MEL-5 melanoma
  TGI: 39 µM
OVCAR-4 ovarian
  TGI: > 100 µM
HCT-116 colon
  TGI: 28.1 µM
786-0 renal
  TGI: 38.8 µM
A498 renal
  TGI: 60.7 µM
SF-295 CNS
  TGI: 76 µM
U251 CNS
  TGI: 37.9 µM
NCI-H460 lung
  TGI: > 100 µM
NCI-H23 lung
  TGI: 33.2 µM
SF-539 CNS
  TGI: 45.7 µM
SK-MEL-28 melanoma
  TGI: 96.7 µM
DU-145 prostate
  TGI: 53.5 µM
RPMI-8226 leukemia
  TGI: > 100 µM
EKVX NSCLC
  TGI: > 100 µM
OVCAR-3 ovarian
  TGI: 37.2 µM
MALME-3M melanoma
  TGI: 50.3 µM
SK-OV-3 ovarian
  TGI: 47.5 µM
